Laboratory results: US9605004B2, “Chemical compounds” (SYNGENTA LIMITED, priority 2013, dated 2017)

What was measured:
[1] = test system: a variety of test species; test: Pre-emergence herbicidal activity (Example 8a, Table 2); format: in vivo; parameters: key: 0 = no damage to plant, 5 = total damage to plant; settings: application pre-emergence, rate 1000 g/ha, evaluated after 13 days
Summary of the method: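 Visual 0–5 injury score (5 = total damage) taken 13 days after spraying. Treatment applied one day after sowing, before emergence; glasshouse at 24/16 °C day/night, 14 h photoperiod, 65% humidity.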

[2] = test system: a variety of test species; test: Post-emergence herbicidal activity (Example 8b, Table 3); format: in vivo; settings: application post-emergence, rate 1000 g/ha, evaluated after 13 days, scale 0-5; for Herbicidal damage score, ABUTH: Abutilon theophrasti; for Herbicidal damage score, ALOMY: Alopecurus myosuroides; for Herbicidal damage score, AMARE: Amaranthus retroflexus; for Herbicidal damage score, ECHCG: Echinochloa crus-galli; for Herbicidal damage score, SETFA: Setaria faberi; for Herbicidal damage score, ZEAMX: Zea mays
Summary of the method: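 Damage was rated 0-5 (5 = total) 13 days after a post-emergence spray of acetone/water (50:50) plus 0.5% Tween 20 formulation. Plants were sprayed at 8 days' growth and kept at 24/16° C, 14 h light, 65% humidity, watered twice daily.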

CC1=C(Cl)C(=O)N(c2cc(I)n(C)n2)C1O (stereo not shown) [Compound B8, 4-chloro-2-hydroxy-1-(5-iodo-1-methyl-pyrazol-3-yl)-3-methyl-2H-pyrrol-5-one]
Pre-emergence herbicidal activity, damage score ABUTH [1]: 4 | Pre-emergence herbicidal activity, damage score ALOMY [1]: 4 | Pre-emergence herbicidal activity, damage score AMARE [1]: 5 | Pre-emergence herbicidal activity, damage score ECHCG [1]: 4 | Pre-emergence herbicidal activity, damage score SETFA [1]: 5 | Pre-emergence herbicidal activity, damage score ZEAMX [1]: 3 | Herbicidal damage score, ABUTH [2]: 5 | Herbicidal damage score, ALOMY [2]: 5 | Herbicidal damage score, AMARE [2]: 5 | Herbicidal damage score, ECHCG [2]: 5 | Herbicidal damage score, SETFA [2]: 5 | Herbicidal damage score, ZEAMX [2]: 4

CC1=C(Cl)C(=O)N(c2cc(C)[nH]n2)C1O (stereo not shown) [Compound A5]
Pre-emergence herbicidal activity, damage score ABUTH [1]: 5 | Pre-emergence herbicidal activity, damage score ALOMY [1]: 3 | Pre-emergence herbicidal activity, damage score AMARE [1]: 5 | Pre-emergence herbicidal activity, damage score ECHCG [1]: 5 | Pre-emergence herbicidal activity, damage score SETFA [1]: 4 | Pre-emergence herbicidal activity, damage score ZEAMX [1]: 2 | Herbicidal damage score, ABUTH [2]: 5 | Herbicidal damage score, ALOMY [2]: 4 | Herbicidal damage score, AMARE [2]: 3 | Herbicidal damage score, ECHCG [2]: 5 | Herbicidal damage score, SETFA [2]: 5 | Herbicidal damage score, ZEAMX [2]: 3

CC1=C(Cl)C(=O)N(c2cc(C(F)(F)F)n(C(C)C)n2)C1O (stereo not shown) [Compound C4]
Pre-emergence herbicidal activity, damage score ABUTH [1]: 4 | Pre-emergence herbicidal activity, damage score ALOMY [1]: 3 | Pre-emergence herbicidal activity, damage score AMARE [1]: 4 | Pre-emergence herbicidal activity, damage score ECHCG [1]: 4 | Pre-emergence herbicidal activity, damage score SETFA [1]: 4 | Pre-emergence herbicidal activity, damage score ZEAMX [1]: 3 | Herbicidal damage score, ABUTH [2]: 4 | Herbicidal damage score, ALOMY [2]: 4 | Herbicidal damage score, AMARE [2]: 4 | Herbicidal damage score, ECHCG [2]: 5 | Herbicidal damage score, SETFA [2]: 4 | Herbicidal damage score, ZEAMX [2]: 2

CC1=C(Cl)C(=O)N(c2cc(I)n(C)n2)C1O (stereo not shown) [Compound B16]
Pre-emergence herbicidal activity, damage score ABUTH [1]: 4 | Pre-emergence herbicidal activity, damage score ALOMY [1]: 4 | Pre-emergence herbicidal activity, damage score ECHCG [1]: 4 | Pre-emergence herbicidal activity, damage score ZEAMX [1]: 3 | Herbicidal damage score, ZEAMX [2]: 4

CCn1nc(N2C(=O)C(Cl)=C(C)C2O)cc1C(F)(F)F (stereo not shown) [Compound C6]
Pre-emergence herbicidal activity, damage score ABUTH [1]: 5 | Pre-emergence herbicidal activity, damage score ALOMY [1]: 4 | Pre-emergence herbicidal activity, damage score AMARE [1]: 5 | Pre-emergence herbicidal activity, damage score ECHCG [1]: 5 | Pre-emergence herbicidal activity, damage score SETFA [1]: 4 | Pre-emergence herbicidal activity, damage score ZEAMX [1]: 4 | Herbicidal damage score, ABUTH [2]: 5 | Herbicidal damage score, ALOMY [2]: 5 | Herbicidal damage score, AMARE [2]: 5 | Herbicidal damage score, ECHCG [2]: 5 | Herbicidal damage score, SETFA [2]: 4 | Herbicidal damage score, ZEAMX [2]: 3

CC(C)=Cc1cc(N2C(=O)C(Cl)=C(C)C2O)nn1C (stereo not shown) [Compound B20]
Pre-emergence herbicidal activity, damage score ABUTH [1]: 4 | Pre-emergence herbicidal activity, damage score ALOMY [1]: 2 | Pre-emergence herbicidal activity, damage score AMARE [1]: 4 | Pre-emergence herbicidal activity, damage score ECHCG [1]: 4 | Pre-emergence herbicidal activity, damage score SETFA [1]: 4 | Pre-emergence herbicidal activity, damage score ZEAMX [1]: 2 | Herbicidal damage score, ALOMY [2]: 4 | Herbicidal damage score, ZEAMX [2]: 2

CC1=C(Br)C(=O)N(c2cc(C(C)(C)C)n(C)n2)C1O (stereo not shown) [Compound J1]
Pre-emergence herbicidal activity, damage score ABUTH [1]: 5 | Pre-emergence herbicidal activity, damage score ALOMY [1]: 3 | Pre-emergence herbicidal activity, damage score AMARE [1]: 5 | Pre-emergence herbicidal activity, damage score ECHCG [1]: 5 | Pre-emergence herbicidal activity, damage score SETFA [1]: 4 | Pre-emergence herbicidal activity, damage score ZEAMX [1]: 2 | Herbicidal damage score, ABUTH [2]: 5 | Herbicidal damage score, ALOMY [2]: 5 | Herbicidal damage score, AMARE [2]: 5 | Herbicidal damage score, ECHCG [2]: 5 | Herbicidal damage score, SETFA [2]: 5 | Herbicidal damage score, ZEAMX [2]: 4

CC1=C(Cl)C(=O)N(c2cc(C(C)C(F)(F)F)n(C)n2)C1O (stereo not shown) [Compound B39]
Pre-emergence herbicidal activity, damage score ABUTH [1]: 5 | Pre-emergence herbicidal activity, damage score ALOMY [1]: 4 | Pre-emergence herbicidal activity, damage score AMARE [1]: 5 | Pre-emergence herbicidal activity, damage score ECHCG [1]: 5 | Pre-emergence herbicidal activity, damage score SETFA [1]: 5 | Pre-emergence herbicidal activity, damage score ZEAMX [1]: 4 | Herbicidal damage score, ABUTH [2]: 5 | Herbicidal damage score, ALOMY [2]: 5 | Herbicidal damage score, AMARE [2]: 5 | Herbicidal damage score, ECHCG [2]: 5 | Herbicidal damage score, SETFA [2]: 5 | Herbicidal damage score, ZEAMX [2]: 5

CCCC1=C(Br)C(=O)N(c2nn(C)c(C(C)(C)C)c2C#N)C1OC(=O)CC (stereo not shown) [Compound L3]
Pre-emergence herbicidal activity, damage score ABUTH [1]: 4 | Pre-emergence herbicidal activity, damage score ALOMY [1]: 3 | Pre-emergence herbicidal activity, damage score AMARE [1]: 3 | Pre-emergence herbicidal activity, damage score ECHCG [1]: 4 | Pre-emergence herbicidal activity, damage score SETFA [1]: 3 | Pre-emergence herbicidal activity, damage score ZEAMX [1]: 2 | Herbicidal damage score, ABUTH [2]: 5 | Herbicidal damage score, ALOMY [2]: 4 | Herbicidal damage score, AMARE [2]: 4 | Herbicidal damage score, ECHCG [2]: 5 | Herbicidal damage score, SETFA [2]: 5 | Herbicidal damage score, ZEAMX [2]: 2

CCC1CCCn2nc(N3C(=O)C(Cl)=C(C)C3O)cc21 (mixture of isomers) [Compound G5]
Pre-emergence herbicidal activity, damage score ABUTH [1]: 5 | Pre-emergence herbicidal activity, damage score ALOMY [1]: 3 | Pre-emergence herbicidal activity, damage score AMARE [1]: 5 | Pre-emergence herbicidal activity, damage score ECHCG [1]: 5 | Pre-emergence herbicidal activity, damage score SETFA [1]: 4 | Pre-emergence herbicidal activity, damage score ZEAMX [1]: 1 | Herbicidal damage score, ABUTH [2]: 5 | Herbicidal damage score, ALOMY [2]: 4 | Herbicidal damage score, AMARE [2]: 5 | Herbicidal damage score, ECHCG [2]: 5 | Herbicidal damage score, SETFA [2]: 5 | Herbicidal damage score, ZEAMX [2]: 5

CC1=C(Cl)C(=O)N(c2cc(C#CCC(C)C)n(C)n2)C1O (stereo not shown) [Compound B30]
Pre-emergence herbicidal activity, damage score ABUTH [1]: 0 | Pre-emergence herbicidal activity, damage score ALOMY [1]: 0 | Pre-emergence herbicidal activity, damage score AMARE [1]: 2 | Pre-emergence herbicidal activity, damage score ECHCG [1]: 0 | Pre-emergence herbicidal activity, damage score SETFA [1]: 0 | Pre-emergence herbicidal activity, damage score ZEAMX [1]: 0 | Herbicidal damage score, ABUTH [2]: 3 | Herbicidal damage score, ALOMY [2]: 0 | Herbicidal damage score, AMARE [2]: 3 | Herbicidal damage score, ECHCG [2]: 0 | Herbicidal damage score, SETFA [2]: 2 | Herbicidal damage score, ZEAMX [2]: 0

CC1=C(Cl)C(=O)N(c2cc3n(n2)CCCC3(C)C)C1O (stereo not shown) [Compound G4]
Pre-emergence herbicidal activity, damage score ABUTH [1]: 5 | Pre-emergence herbicidal activity, damage score ALOMY [1]: 4 | Pre-emergence herbicidal activity, damage score AMARE [1]: 5 | Pre-emergence herbicidal activity, damage score ECHCG [1]: 5 | Pre-emergence herbicidal activity, damage score SETFA [1]: 5 | Pre-emergence herbicidal activity, damage score ZEAMX [1]: 3 | Herbicidal damage score, ABUTH [2]: 5 | Herbicidal damage score, ALOMY [2]: 5 | Herbicidal damage score, AMARE [2]: 5 | Herbicidal damage score, ECHCG [2]: 5 | Herbicidal damage score, SETFA [2]: 5 | Herbicidal damage score, ZEAMX [2]: 5

CC1=C(Cl)C(=O)N(c2nn(C)c3c2CCCCC3(C)C)C1O (stereo not shown) [Compound E3]
Pre-emergence herbicidal activity, damage score ABUTH [1]: 4 | Pre-emergence herbicidal activity, damage score ALOMY [1]: 2 | Pre-emergence herbicidal activity, damage score AMARE [1]: 5 | Pre-emergence herbicidal activity, damage score ECHCG [1]: 4 | Pre-emergence herbicidal activity, damage score SETFA [1]: 2 | Pre-emergence herbicidal activity, damage score ZEAMX [1]: 1 | Herbicidal damage score, ABUTH [2]: 4 | Herbicidal damage score, ALOMY [2]: 4 | Herbicidal damage score, AMARE [2]: 5 | Herbicidal damage score, ECHCG [2]: 5 | Herbicidal damage score, SETFA [2]: 4 | Herbicidal damage score, ZEAMX [2]: 2
